For 1 compound, MTD, Mortality and Tolerability results are on record in patent US12377110B2, “Fospropofol methods and compositions” (Epalex Corporation, priority 2019, dated 2025).

Series [1] in a line: Study No. 15-1 (non-GLP): MTD and 7-day once daily oral gavage toxicity of fospropofol disodium. The format is in vivo, Sprague-Dawley rats. Particulars: rat, in vivo; oral gavage, Sprague-Dawley rats. The source says:
(§1) The purpose of Study No. 15-1 (non-GLP) was to determine the maximum tolerated close (MTD) of fospropofol when administered by oral gavage to Sprague-Dawley rats (Phase 1) and to evaluate the potential toxicity of fospropofol in Sprague-Dawley rats when administered once daily by oral gavage for 7 days (Phase 2).

The test system of another series is Sprague-Dawley rats. Described as above. The format is in vivo.
Excerpt: as §1

`CC(C)c1cccc(C(C)C)c1OCOP(=O)([O-])O.[Na+]` [fospropofol disodium]: the MTD at 7 days in series [1] is 250 mg/kg/day. Moreover, the Mortality entry in the series on Sprague-Dawley rats (150 mg/kg/day, Day 7, approximately 30 minutes postdose) is “one 150 mg/kg/day TK female was found dead”. Further, in the series with Sprague-Dawley rats (oral gavage, Sprague-Dawley rats), the MTD was determined as 1500 mg/m^2/day. Besides, the Tolerability result with Sprague-Dawley rats (oral gavage, single fospropofol doses up to 300 mg/kg or 150 and 250 mg/kg/day once daily for 7 days) is recorded as “well tolerated at all closes”.
